Target: RAC-alpha serine/threonine-protein kinase (Homo sapiens, UniProt P31749)
Assay: TR-FRET assay: For the assay 50 nl of a 100fold concentrated solution of the test compound in DMSO was pipetted into a black low volume 384well microtiter plate (Greiner Bio- One, Frickenhausen, Germany), 2 ul of a solution of Akt1 in assay buffer [50 mM TRIS/HCI pH 7.5, 5 mM MgCI2, 1 mM dithiothreitol, 0.02% (v/v) Triton X-100 (Sigma)] were added and the mixture was incubated for 15 min at 22 C to allow pre-binding of the test compounds to the enzyme before the start of the kinase reaction. Then the kinase reaction was started by the addition of 3 ul of a solution of adenosine-tri-phosphate (ATP, 16.7 ul => final cone, in the 5 ul assay volume is 10 ul) and substrate (1 .67 ul => final cone, in the 5 ul assay volume is 1 ul) in assay buffer and the resulting mixture was incubated for a reaction time of 60 min at 22 C. The concentration of Akt1 in the assay was adjusted depending of the activity of the enzyme lot.

Sequence of RAC-alpha serine/threonine-protein kinase (P31749 whole entry): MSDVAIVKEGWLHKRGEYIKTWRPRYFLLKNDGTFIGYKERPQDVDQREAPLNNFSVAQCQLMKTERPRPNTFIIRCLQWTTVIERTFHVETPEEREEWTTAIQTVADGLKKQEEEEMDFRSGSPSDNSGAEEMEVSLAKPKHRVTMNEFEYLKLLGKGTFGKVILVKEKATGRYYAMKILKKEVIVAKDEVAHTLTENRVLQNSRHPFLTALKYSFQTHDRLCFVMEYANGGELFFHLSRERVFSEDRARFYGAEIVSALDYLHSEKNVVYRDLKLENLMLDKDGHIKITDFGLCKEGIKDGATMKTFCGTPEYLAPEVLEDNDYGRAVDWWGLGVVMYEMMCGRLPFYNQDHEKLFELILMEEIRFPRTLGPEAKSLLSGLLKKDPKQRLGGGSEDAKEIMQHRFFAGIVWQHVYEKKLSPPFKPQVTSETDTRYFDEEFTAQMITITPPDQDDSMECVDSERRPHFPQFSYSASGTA

Row | IC50 | Compound
1 | 0.093 µM | NC1(c2ccc(-c3nc4c5cc(F)ccc5nn4cc3-c3ccccc3)cc2)CCC1
2 | 0.067 µM | N#Cc1cccc(-c2ccc3nn4cc(-c5ccccc5)c(-c5ccc(C6(N)CCC6)cc5)nc4c3c2)c1
3 | 0.32 µM | N#Cc1ccc(-c2cccc3nn4cc(-c5ccccc5)c(-c5ccc(C6(N)CCC6)cc5)nc4c23)cc1
4 | 0.049 µM | N#Cc1cccc2c1nn1cc(-c3ccccc3)c(-c3ccc(C4(N)CCC4)cc3)nc21

The next lines start with the compound.

Row | Compound | IC50
5 | NC1(c2ccc(-c3nc4c5cc(-c6ccc(F)cc6)ccc5nn4cc3-c3ccccc3)cc2)CCC1 | 0.11 µM
6 | N#Cc1cccc(-c2cccc3c2nn2cc(-c4ccccc4)c(-c4ccc(C5(N)CCC5)cc4)nc32)c1 | 10 µM
7 | NC1(c2ccc(-c3nc4c5cccc(O)c5nn4cc3-c3ccccc3)cc2)CCC1 | 0.1 µM

Source: ChEMBL document CHEMBL3639046, “Substituted pyrimido[1,2-b]indazoles and their use as modulators of the Pi3K/Akt pathway” (2015)
